# Test results reported in patent US11879140B2, “P21 mRNA targeting DNAzymes” (1E Therapeutics Ltd., priority 2020, dated 2024).
# [invdT] = inverted (3'-3') thymidine
# How the values were obtained:
# [1] = test system: human p21 mRNA; test: In vitro cleavage assay of human p21 mRNA; type: biochemical; conditions: in vitro cleavage of p21 mRNA (SEQ ID NO: 1); RNA substrate 500 nM, 37° C. 60 min, agarose gel
# Source text: Total RNA was isolates from senescent IMR-90 cells using Nucleospin® RNA kit (Macherey-Nagel™). cDNA was synthesized with gene-specific reverse primers using M-MLV Reverse Transcriptase (Promega), according to the manufacturer's protocol. To generate template for in vitro transcription (IVT) reaction, the cDNA was PCR amplified using KAPA Taq EXtra HotStart® ReadyMix™ PCR Kit (R&D). PCR product was run on 1.5% agarose TAE gel, the correct band size was cut and DNA was cleaned using Wizard® SV Gel and PCR Clean-Up System kit (Promega). IVT was performed using HiScribe™ T7 High Yield RNA Synthesis Kit (NEB). Samples were then treated with DNase I (New England Biolabs) and incubated for 15 minutes at 37° C. IVT product was run on 1.5% agarose TBE gel, the correct band size was cut and RNA was cleaned using QIAquick® Gel Extraction Kit (Qiagen). See primer sequences in Table 1, below.
# RNA substrate was diluted with Molecular Biology Grade Water (Biological Industries) and used in in vitro cleavage assay. A 20 μl reaction system comprising RNA substrate (final concentration 500 nM), 2 μl 10× reaction buffer (50 mM Tris-HCl pH 7.4, 100 mM NaCl, 10 mM MgCl2) and 1 μl DNAzyme (10 μM) (as depicted in Table 2, below) was mixed. Reactions were incubated at 37° C. for 60 min. 2×RNA L.D. (Thermo Fisher) was added to each sample. Samples were heated at 70° C. for 30 sec, centrifuged and loaded onto 1.5% agarose TBE gels. Quantification was performed using Image Lab software (Bio Rad).
# [2] = test system: p21 mRNA; test: Quantitative RT-PCR of p21 mRNA in senescent cells; type: cell-based, human; conditions: over 24 hours following treatment, 2000 nM (FIG. 5D)
# Description: Total RNA was extracted from IMR-90 cells using NucleoSpin® RNA (Macherey-Nagel™), according to the manufacturer protocol. Complementary DNA was prepared using the M-MLV Reverse Transcriptase (Promega), according to the manufacturer protocol. Quantitative real-time PCR was performed using the SYBR Green PCR master-mix (Applied Biosystems) on a CFX96 Real-Time PCR System (Bio Rad). See primer sequences in Table 1, above.
# [3] = test system: senescent human IMR-90 fibroblast cells; type: cell-based; conditions: increasing concentrations (FIGS. 6A-C, 12A-C)
# Description: Human IMR-90, BJ, WI-38 fibroblasts and REC epithelial cells were obtained from ATCC and grown at 5% oxygen. IMR-90 and REC cells were maintained in DMEM medium comprising 100 units per ml of penicillin, […] of streptomycin and 10% fetal bovine serum. BJ and WI-38 cells were maintained in EMEM medium comprising 100 units per ml of penicillin, […] of streptomycin, 10% fetal bovine serum, 1% Pyruvate, 1% L-Glutamine, mLFs were isolated according to standard procedures [Seluanov, A., et al. J Vis Exp (2010) (44):2033] and grown at 5% oxygen. Cells were maintained in EMEM medium comprising 100 units per ml of penicillin, […] of streptomycin and 15% fetal bovine serum.
# DNA damage induced senescence (DIS) was induced by etoposide treatment (E1383, Sigma) at a concentration of […] for IMR-90, BJ, and WI-38, 16 μM for mLF and 12.5 μM for REC for a duration of 48 hours. Cells acquired the senescence phenotype 7 days post treatment (determined by SA-beta-gal staining).
# Oncogene Induced Senescence (OIS) was induced by means of retroviral infection with H-RasG12 (pLNCX2) at 5% oxygen. Retroviruses were packaged, and infections were performed as described below.
# Replicative Induced Senescence (RIS) was induced by long-term passaging of the cells in tissue culture. Cells acquired the senescence phenotype after 40 population doublings.
# Primary target cells (IMR-90, BJ, […]) were plated in 24-well plates at 100,000 cells per well. Cells were transfected with different concentrations of DNAzymes (as depicted in Table 2, below) using Lipofectamine™ 2000 (Invitrogen) according to manufacturer instructions. The percentage of survival was determined based on quantification of remaining adherent cells using PrestoBlue® reagent (A13262, Life Technologies Ltd.) relative to Lipofectamine™ only control and compared to Scramble DNAzyme (Dz_Scramble) [Scramble Arm (Scr A) sequence: ATCTTCCTFggctagctacaacgaCGCCTCTCC, SEQ ID NO: 5, or Scramble catalytic core (Scr B) sequence: AGGAGAACAacagtaactggcgacGGGATGAGG, SEQ ID NO: 86] treated cells, 3-6 days following transfection.
# [4] = test system: healthy C57/B6 mice; test: In-vivo safety of DNAzyme in mice
# Description: 8 weeks old male and female C57/BL6 were treated intranasally with DNAzyme 1670 for 14 days. DNAzyme was administered in three concentrations: 40, 200 and 1000 μg. PBS treated mice served as control. Body weight, viability, clinical signs and behavior were monitored daily. On day 14, blood was collected using cardiac puncture and mice were sacrificed thereafter. Blood analyses were performed by AML (Central Lab Services). Hematology was performed using Advia-2120 (Siemens Healthineers). Biochemistry was performed using COBAS® 6000 (Roche Diagnostics).
substance,measurement,setting,value
"DNAzyme 985: SEQ ID NO: 36: GGGGGCGGtccgagccggacgaAGGGTATGT (GGGGGCGGTCCGAGCCGGACGAAGGGTATGT; DNA, backbone and methylation of C not given here)",Validated cleavage,[1],validated for mediating cleavage of p21 mRNA
same,p21 mRNA knockdown,[2],73%
same,"selectivity of killing, senescent versus growing IMR-90 cells",[3],wide range of selective doses
"DNAzyme 1670 comprising a 3′Inverted dT: DNAzyme 1670 (SEQ ID NO: 54) with a 3′ inverted dT modification (DNA GGGAAAGGAGGCTAGCTACAACGAAAGGGGGAG; DNA, all phosphodiester, 3' [invdT], methylation of C not given here; further chemistry not fully specified)",blood tests: complete blood count and biochemistry parameters,[4]; 2 week endpoint (FIGS. 13G-O),safe profile
same,signs of pain or distress,"[4]; 40, 200, 1000 micrograms intranasally daily for 2 weeks",no obvious signs of pain or distress
same,body weight between groups,"[4]; 40, 200, 1000 micrograms intranasally daily for 2 weeks (FIG. 13F)",no significant differences
"DNAzyme 1742: SEQ ID NO: 59: TCCAGTCCAggctagctacaacgaTGAGCTGGG (DNA TCCAGTCCAGGCTAGCTACAACGATGAGCTGGG; DNA, backbone and methylation of C not given here)",Validated cleavage,[1],validated for mediating cleavage of p21 mRNA
"DNAzyme 1786: SEQ ID NO: 60: GAGGTAGAAggctagctacaacgaTAGGGTGCC (DNA GAGGTAGAAGGCTAGCTACAACGATAGGGTGCC; DNA, backbone and methylation of C not given here)",Validated cleavage,[1],validated for mediating cleavage of p21 mRNA
"DNAzyme 1838: SEQ ID NO: 63: GGACCCTCAggctagctacaacgaCCCCACAGC (DNA GGACCCTCAGGCTAGCTACAACGACCCCACAGC; DNA, backbone and methylation of C not given here)",Validated cleavage,[1],validated for mediating cleavage of p21 mRNA
"DNAzyme 1851: SEQ ID NO: 64: GTGCCACCAggctagctacaacgaATGGGACCC (DNA GTGCCACCAGGCTAGCTACAACGAATGGGACCC; DNA, backbone and methylation of C not given here)",Validated cleavage,[1],validated for mediating cleavage of p21 mRNA
"DNAzyme 1854: SEQ ID NO: 65: CCTGTGCCAggctagctacaacgaCACATGGGA (DNA CCTGTGCCAGGCTAGCTACAACGACACATGGGA; DNA, backbone and methylation of C not given here)",Validated cleavage,[1],validated for mediating cleavage of p21 mRNA
"DNAzyme 1947: SEQ ID NO: 69: GCTGGACGAggctagctacaacgaTTGAGGGGC (DNA GCTGGACGAGGCTAGCTACAACGATTGAGGGGC; DNA, backbone and methylation of C not given here)",Validated cleavage,[1],validated for mediating cleavage of p21 mRNA
"DNAzyme 1967: SEQ ID NO: 70: TGGGGTGGAggctagctacaacgaGAGGAAGGT (DNA TGGGGTGGAGGCTAGCTACAACGAGAGGAAGGT; DNA, backbone and methylation of C not given here)",Validated cleavage,[1],validated for mediating cleavage of p21 mRNA
"DNAzyme 1976: SEQ ID NO: 71: GGGGAGGGAggctagctacaacgaGGGGTGGAT (DNA GGGGAGGGAGGCTAGCTACAACGAGGGGTGGAT; DNA, backbone and methylation of C not given here)",Validated cleavage,[1],validated for mediating cleavage of p21 mRNA
"DNAzyme 1986: SEQ ID NO: 72: GCAATGAAtccgagccggacgaGGGGAGGGA (DNA GCAATGAATCCGAGCCGGACGAGGGGAGGGA; DNA, backbone and methylation of C not given here)",Validated cleavage,[1],validated for mediating cleavage of p21 mRNA
"DNAzyme 1987: SEQ ID NO: 73: TGCAATGAAggctagctacaacgaTGGGGAGGG (DNA TGCAATGAAGGCTAGCTACAACGATGGGGAGGG; DNA, backbone and methylation of C not given here)",Validated cleavage,[1],validated for mediating cleavage of p21 mRNA
"DNAzyme 1991: SEQ ID NO: 74: AAAGTGCAAggctagctacaacgaGAACTGGGG (DNA AAAGTGCAAGGCTAGCTACAACGAGAACTGGGG; DNA, backbone and methylation of C not given here)",Validated cleavage,[1],validated for mediating cleavage of p21 mRNA
"DNAzyme 2266: SEQ ID NO: 78: AGAGGTTTAggctagctacaacgaAGTCTAGGT (DNA AGAGGTTTAGGCTAGCTACAACGAAGTCTAGGT; DNA, backbone and methylation of C not given here)",Validated cleavage,[1],validated for mediating cleavage of p21 mRNA
